Legend:
Assay type in all cases: binding, human
[1] = test system: serum 1a (individual 1, early serum)
[2] = test system: serum 1b (individual 1, late serum)
serum 2 (individual 2) = test system: serum 2 (individual 2)
serum 6 (individual 6) = test system: serum 6 (individual 6)
serum 37 (individual 37) = test system: serum 37 (individual 37)
serum 62 (individual 62) = test system: serum 62 (individual 62)
serum London = test system: serum London
serum SARS-yellow = test system: serum SARS-yellow
serum SARS-green = test system: serum SARS-green
[3] = test system: control serum LUMC (pooled serum of ten healthy hospital workers)
[4] = test system: control serum Blood-bank (commercial negative donor pooled serum)

Row | Sequence | Binding of serum 1a to linear peptides of Orf14 of SARS-CoV TOR2 [1] | Binding of serum 1b to linear peptides of Orf14 of SARS-CoV TOR2 [2] | Binding of serum 2 to linear peptides of Orf14 of SARS-CoV TOR2 (serum 2 (individual 2)) | Binding of serum 6 to linear peptides of Orf14 of SARS-CoV TOR2 (serum 6 (individual 6)) | Binding of serum 37 to linear peptides of Orf14 of SARS-CoV TOR2 (serum 37 (individual 37)) | Binding of serum 62 to linear peptides of Orf14 of SARS-CoV TOR2 (serum 62 (individual 62)) | Binding of serum London to linear peptides of Orf14 of SARS-CoV TOR2 (serum London) | Binding of serum SARS-yellow to linear peptides of Orf14 of SARS-CoV TOR2 (serum SARS-yellow) | Binding of serum SARS-green to linear peptides of Orf14 of SARS-CoV TOR2 (serum SARS-green) | Control serum LUMC linear peptides [3] | Control serum LUMC looped peptides [3] | Control Serum Blood-Bank Looped peptides [4] | Control serum Blood-bank linear peptides [4]
1 | LLLEWLAEVVKLPSR | 0.5 | 0.4 | 0.4 | 0.6 | 0.7 | 0.4 | 0.6 | 0.2 | 0.3 | 0.5 | 0.5 | 0.7 | 0.7
2 | MLPPCYNFLKEQHCQ | 0.4 | 0.4 | 0.3 | 0.5 | 0.5 | 0.3 | 0.4 | 0.2 | 0.2 | 0.5 | 0.6 | 0.7 | 0.4
3 | PHHVVAVIQEIQLLA | 0.4 | 0.3 | 0.4 | 0.4 | 0.5 | 0.3 | 0.3 | 0.4 | 0.2 | 0.5 | 0.6 | 0.5 | 0.4
4 | PLLAPHHVVAVIQEI | 0.5 | 0.4 | 0.4 | 0.4 | 0.6 | 0.4 | 0.5 | 0.4 | 0.2 | 0.5 | 0.6 | 0.6 | 0.4
5 | QEIQLLAAVGEILLL | 0.5 | 0.4 | 0.5 | 0.4 | 0.6 | 0.4 | 0.3 | 0.5 | 0.2 | 0.7 | 0.5 | 0.6 | 0.4
6 | QLLAAVGEILLLEWL | 0.5 | 0.4 | 0.4 | 0.3 | 0.6 | 0.4 | 0.4 | 0.4 | 0.1 | 0.6 | 0.5 | 0.6 | 0.4
7 | QREAEAAVKPLLAPH | 0.4 | 0.3 | 0.4 | 0.5 | 0.4 | 0.3 | 0.4 | 0.2 | 0.3 | 0.4 | 0.7 | 0.7 | 0.4
8 | REAEAAVKPLLAPHH | 0.5 | 0.3 | 0.4 | 0.3 | 0.5 | 0.3 | 0.4 | 0.2 | 0.1 | 0.3 | 0.6 | 0.7 | 0.2
9 | TQREAEAAVKPLLAP | 0.4 | 0.2 | 0.4 | 0.4 | 0.4 | 0.3 | 0.4 | 0.2 | 0.3 | 0.4 | 0.7 | 0.8 | 0.4
10 | VAVIQEIQLLAAVGE | 0.5 | 0.4 | 0.3 | 0.4 | 0.5 | 0.3 | 0.3 | 0.2 | 0.3 | 0.3 | 0.6 | 0.6 | 0.3
11 | VGEILLLEWLAEVVK | 0.5 | 0.4 | 0.4 | 0.5 | 0.6 | 0.4 | 0.5 | 0.4 | 0.2 | 0.6 | 0.8 | 0.7 | 0.5
